The text below walks through data of patent US10239887B2, “Positive allosteric modulators of the muscarinic acetylcholine receptor M4” (Vanderbilt University, priority 2016, dated 2019).

The assay deals with T1, human mAChR M4 (Homo sapiens, UniProt P08173).
T1 sequence (P08173 1-479): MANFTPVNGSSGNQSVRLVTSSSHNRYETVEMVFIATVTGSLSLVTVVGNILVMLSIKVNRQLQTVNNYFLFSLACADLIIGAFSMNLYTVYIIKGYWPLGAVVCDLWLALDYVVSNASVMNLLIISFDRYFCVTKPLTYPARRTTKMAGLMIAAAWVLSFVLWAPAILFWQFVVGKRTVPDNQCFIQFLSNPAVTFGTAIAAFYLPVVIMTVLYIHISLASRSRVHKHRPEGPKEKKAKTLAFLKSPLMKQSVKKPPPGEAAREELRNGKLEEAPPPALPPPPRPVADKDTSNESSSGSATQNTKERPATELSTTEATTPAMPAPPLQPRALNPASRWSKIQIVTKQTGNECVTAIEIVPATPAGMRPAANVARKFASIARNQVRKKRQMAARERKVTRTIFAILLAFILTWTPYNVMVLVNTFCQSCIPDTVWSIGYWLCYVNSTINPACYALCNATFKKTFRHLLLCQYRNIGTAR
Briefly: mAChR M4 cell-based functional assay (calcium flux), human M4. The conditions noted are these: for EC50: calcium flux. A general note: A change in cytosolic calcium serves as a functional read-out for many receptors and channels.

Where [1] appears, read: Table 10, % ACh maximum at 30 μM.
Where [2] appears, read: Human M4 EC50 (nM), Table 10, PAM activity with EC20 acetylcholine.
Where [3] appears, read: Human M4 EC50 (nM), Table 11, PAM activity with EC20 acetylcholine.
The mark [4] stands for this setting: Table 11, % ACh maximum at 30 μM.

SMILES strings stand for the structures. Counter-ions that a name gives are not always drawn.

Usually Emax stands for the maximal effect, on the per cent scale that the assay sets. Take `Cc1nnc2sc3c(NCc4ccc(C(C)(C)O)nc4)ncnc3c2c1C` [Compound 106, 2-[5-[[(3,4-dimethylpyrimido [4′,5′:4,5]thieno[2,3-c]pyridazin-8-yl)amino]methyl]-2-pyridyl]propan-2-ol]: the maximum response (Emax) under setting [1] worked out at 54.1%.

For orientation: EC50 means the midpoint of the concentration-response curve. For the molecule `Cc1cc(C)c2c(n1)oc1c(NC3CCC3)ncnc12` [Compound 293, N-cyclobutyl-7,9-dimethyl-pyrido[3′,2′:4,5]furo[3,2-d]pyrimidin-4-amine hydrochloride], under setting [2], the concentration for a half-maximal effect (EC50) is 1590 nM. The “Emax (%)” value under setting [1] came to 44.18%.

Consider `Cc1nnc2sc3c(NCc4ccc(-c5nccs5)cc4)ncnc3c2c1C` [Compound 326, 3,4-dimethyl-N-[(4-thiazol-2-ylphenyl)methyl]pyrimido[4′,5′:4,5] thieno[2,3-c]pyridazin-8-amine], for which, under setting [3], the EC50 worked out at 1070 nM. Further, under setting [4], the Emax was determined as 64.9%.

For the molecule `COc1nnc2sc3c(N4CCCC4)ncnc3c2c1C` [Compound 281, 3-methoxy-4-methyl-8-pyrrolidin-1-yl-pyrimido [4′,5′:4,5]thieno[2,3-c] pyridazine], the EC50 under setting [2] was 47.7 nM. Besides, the Emax under setting [1] is 117%.

Turning to `Cc1nc2sc3c(N4CC5CC5C4)ncnc3c2c(C)c1Cl` (centres unmarked) [Compound 257, 4-(3-azabicyclo[3.1.0]hexan-3-yl)-8-chloro-7,9-dimethyl-pyrido [3′,2′:4,5]thieno[3,2-d] pyrimidine hydrochloride], the concentration for a half-maximal effect (EC50) under setting [2] amounted to 1010 nM. Besides, under setting [1], the Emax is 64.4%.

`Cc1nnc2sc3c(NCc4ccc(C(=O)NC5CC(F)(F)C5)cc4)ncnc3c2c1C` [Compound 152, N-(3,3-difluorocyclobutyl)-4-[[(3,4-dimethylpyrimido [4′,5′:4,5]thieno[2,3-c]pyridazin-8-yl)amino]methyl]benzamide]: the EC50 under setting [2] stood at 59.2 nM. For the same molecule, the maximal effect (Emax) under setting [1] was found to be 86.9%.

In the case of `Cc1cnc2sc3c(N4CCC(F)(F)C4)ncnc3c2c1` [Compound 16, 4-(3,3-difluoropyrrolidin-1-yl)-8-methylpyrido [3′,2′:4,5]thieno[3,2-d] pyrimidine], where the note is “Human M4, % ACh maximum at 30 μM”, the Emax stood at 360%. Besides, under “Human M4 EC50, CHO-K1 hM4-Gqi5 cells, increase in EC20 acetylcholine response”, the EC50 was determined as 377 nM.

`Cc1c(Cl)cnc2sc3c(NCc4ccc5c(c4)COC5)ncnc3c12` [Compound 234, 8-chloro-N-(1,3-dihydroisobenzofuran-5-ylmethyl)-9-methyl-pyrido [3′,2′:4,5]thieno[3,2-d] pyrimidin-4-amine]: the EC50 under setting [2] was determined as 5580 nM. Under setting [1], the Emax was 56.1%.

Turning to `Cc1c(Cl)nnc2sc3c(NC4CN(c5ncc(C(F)(F)F)cn5)C4)ncnc3c12` [Compound 214, 3-chloro-4-methyl-N-[1-[5-(trifluoromethyl)pyrimidin-2-yl]azetidin-3-yl] pyrimido[4′,5′:4,5] thieno[2,3-c]pyridazin-8-amine], the EC50 under setting [2] worked out at 420 nM. In addition, under setting [1], the Emax was 105%.

Turning to `CNC(=O)c1ccc(CNc2ncnc3c2sc2nnc(C)c(C)c23)cc1` [Compound 145, 4-[[(3,4-dimethylpyrimido [4′,5′:4,5]thieno[2,3-c]pyridazin-8-yl)amino]methyl]-N-methyl-benzamide], the 50% effective concentration (EC50) under setting [2] came to 101 nM. Also, the maximal response (Emax) under setting [1] worked out at 82.1%.

Turning to `Cc1nnc2sc3c(NCc4ccc(C(F)(F)F)nc4)ncnc3c2c1C` [Compound 146, 3,4-dimethyl-N-[[6-(trifluoromethyl)-3-pyridyl]methyl]pyrimido [4′,5′:4,5]thieno[2,3-c] pyridazin-8-amine hydrochloride], the concentration for a half-maximal effect (EC50) under setting [2] came out at 828 nM. The Emax under setting [1] turned out to be 97.7%.

For the molecule `[2H]C([2H])(Nc1ncnc2c1sc1nnc(C)c(C)c12)c1ccc(C(C)(C)O)cc1` [Compound 369, 2-[4-[dideuterio-[(3,4-dimethylpyrimido[4′,5′:4,5]thieno[2,3-c]pyridazin-8-yl)amino]methyl]phenyl] propan-2-ol], the Emax under setting [4] worked out at 100%.

Consider `Cc1c(Cl)cnc2sc3c(NCc4ccc(CN5CCOCC5)cc4)ncnc3c12` [Compound 232, 8-chloro-9-methyl-N-[[4-(morpholinomethyl)phenyl]methyl]pyrido [3′,2′:4,5]thieno[3,2-d] pyrimidin-4-amine], for which the EC50 under setting [2] was determined as 9780 nM. For the same molecule, the Emax under setting [1] is 69.8%.

As to `Cc1nnc2sc3c(N4CC[C@H](Oc5ccnc(C(F)(F)F)c5)C4)ncnc3c2c1C` [Compound 331, 3,4-dimethyl-8-[(3S)-3-[[2-(trifluoromethyl)-4-pyridyl]oxy]pyrrolidin-1-yl]pyrimido [4′,5′:4,5]thieno[2,3-c] pyridazine], the concentration for a half-maximal effect (EC50) under setting [3] worked out at 142 nM. Under setting [4], the Emax worked out at 80.6%.

As to `COCCNC(=O)c1cc(CNc2ncnc3c2sc2nnc(C)c(C)c23)ccc1F` [Compound 186, 5-[[(3,4-dimethylpyrimido [4′,5′:4,5]thieno[2,3-c]pyridazin-8-yl)amino]methyl]-2-fluoro-N-(2-methoxyethyl)benzamide], the EC50 under setting [2] came out at 687 nM. Besides, under setting [1], the Emax was 86.8%.

In the case of `Cc1nnc2sc3c(NCc4ccc(N5CCNCC5)cc4)ncnc3c2c1C` [Compound 118, 3,4-dimethyl-N-[(4-piperazin-1-ylphenyl)methyl]pyrimido [4′,5′:4,5]thieno[2,3-c] pyridazin-8-amine], the concentration giving a half-maximal response (EC50) under setting [2] was determined as 69 nM. In addition, the Emax under setting [1] is 101%.

As for `Cc1nnc2sc3c(NCc4ccc(F)c(C(=O)NC5CC5(C)C)c4)ncnc3c2c1C` (centres unmarked) [Compound 181, N-(2,2-dimethylcyclopropyl)-5-[[(3,4-dimethylpyrimido [4′,5′:4,5]thieno[2,3-c]pyridazin-8-yl)amino]methyl]-2-fluoro-benzamide], under setting [2], the EC50 is 1160 nM. For the same molecule, the Emax under setting [1] was 96.5%.

With `Cc1nnc2sc3c(N4CC(COc5ccnc(Cl)c5)C4)ncnc3c2c1C` [Compound 348, 8-[3-[(2-choro-4-pyridyl)oxymethyl]azetidin-1-yl]-3,4-dimethyl-pyrimido [4′,5′:4,5]thieno[2,3-c] pyridazine dihydrochloride], under setting [3], the half-maximal effective concentration (EC50) is 1710 nM. The Emax under setting [4] worked out at 65.7%.

As for `Cc1nnc2sc3c(NC4CC5(C4)CN(c4ncc(F)cc4Cl)C5)ncnc3c2c1C` [Compound 163, N-[2-(3-chloro-5-fluoro-2-pyridyl)-2-azaspiro [3.3]heptan-6-yl]-3,4-dimethyl-pyrimido [4′,5′:4,5]thieno[2,3-c] pyridazin-8-amine], under setting [2], the EC50 stood at 1440 nM. Also, the maximal effect (Emax) under setting [1] was 42.9%.

Regarding `Cc1nnc2sc3c(NCc4ccc(-c5ccc[nH]5)cc4)ncnc3c2c1C` [Compound 191, 3,4-dimethyl-N-[[4-(1H-pyrrol-2-yl)phenyl]methyl]pyrimido[4′,5′:4,5] thieno[2,3-c]pyridazin-8-amine], under setting [2], the 50% effective concentration (EC50) stood at 837 nM. Further, the Emax under setting [1] is 56.9%.

Regarding `Cc1nnc2sc3c(NCc4cccc(-c5ncccn5)c4)ncnc3c2c1C` [Compound 327, 3,4-dimethyl-N-[(3-pyrimidin-2-ylphenyl)methyl]pyrimido [4′,5′:4,5]thieno[2,3-c] pyridazin-8-amine], under setting [3], the EC50 was found to be 1770 nM. Further, the Emax under setting [4] is 64.6%.

Consider `Cc1nc2sc3c(NCc4ccc(C(C)(C)O)c(F)c4)ncnc3c2c(C)c1Cl` [Compound 278, 2-[4-[[(8-chloro-7,9-dimethyl-pyrido [3′,2′:4,5]thieno[3,2-d]pyrimidin-4-yl)amino]methyl]-2-fluoro-phenyl] propan-2-ol], for which the half-maximal effective concentration (EC50) under setting [2] turned out to be 3800 nM. The maximum response (Emax) under setting [1] is 37%.

As for `Cc1c(CO)nnc2sc3c(NCc4ccc(C(C)(C)O)cc4)ncnc3c12` [Compound 377, 2-[4-[[[3-(hydroxymethyl)-4-methyl-pyrimido[4′,5′:4,5]thieno[2,3-c]pyridazin-8-yl]amino]methyl]phenyl]propan-2-ol], the maximum response (Emax) under setting [4] was 93.6%.

As for `Cc1nnc2sc3c(NCc4ccc(C(=O)N[C@H](C)C(F)(F)F)c(Cl)c4)ncnc3c2c1C` [Compound 320, 2-chloro-4-[[(3,4-dimethylpyrimido [4′,5′:4,5]thieno[2,3-c]pyridazin-8-yl)amino]methyl]-N-[(1R)-2,2,2-trifluoro-1-methyl-ethyl] benzamide], the EC50 under setting [3] stood at 532 nM. Also, the Emax under setting [4] was determined as 81.1%.

Consider `Cc1nnc2sc3c(N4CC[C@H](Oc5ccccn5)C4)ncnc3c2c1C` [Compound 359, 3,4-dimethyl-8-[(3S)-3-(2-pyridyloxy)pyrrolidin-1-yl]pyrimido[4′,5′:4,5]thieno[2,3-c]pyridazine dihydrochloride], for which the EC50 under setting [3] worked out at 488 nM. Moreover, under setting [4], the Emax came to 31.8%.

Consider `Cc1nc2sc3c(NC4CN(c5ncc(F)cn5)C4)ncnc3c2c(C)c1Cl` [Compound 263, 8-chloro-N-[1-(5-fluoropyrimidin-2-yl)azetidin-3-yl]-7,9-dimethyl-pyrido[3′,2′:4,5] thieno[3,2-d]pyrimidin-4-amine hydrochloride], for which the EC50 under setting [2] was found to be 9520 nM. Besides, the Emax under setting [1] amounted to 72.6%.

On to `CNC(=O)c1ccc(CNc2ncnc3c2sc2nnc(C)c(C)c23)cc1Cl` [Compound 325, 2-chloro-4-[[(3,4-dimethylpyrimido [4′,5′:4,5]thieno[2,3-c]pyridazin-8-yl)amino]methyl]-N-methyl-benzamide], for which the EC50 under setting [3] amounted to 62.2 nM. Further, the Emax under setting [4] was 78.8%.

Regarding `Cc1nnc2sc3c(NC4CNC4)ncnc3c2c1C` [Compound 88, N-(azetidin-3-yl)-3,4-dimethyl-pyrimido [4′,5′:4,5]thieno[2,3-c] pyridazin-8-amine dihydrochloride], under setting [2], the EC50 was 1190 nM. The Emax under setting [1] stood at 73.7%.
